Reference: the supplement of paper PMC10307832

Tests used:
Experiment in all cases: relative viability (nuclei count vs DMSO), 5 days (fraction); higher = more cells survive
AGI-6780 + Trametinib = compound: O=C(Nc1cccc(C(F)(F)F)c1)Nc1cc(S(=O)(=O)NC2CC2)ccc1-c1ccsc1 [AGI-6780] + CC(=O)Nc1cccc(-n2c(=O)n(C3CC3)c(=O)c3c(Nc4ccc(I)cc4F)n(C)c(=O)c(C)c32)c1 [Trametinib] (partner 0.02 µM)
Procedure, shortened: (§1)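 A single step with final 0.05% Triton X-100, 1% formaldehyde and 1 ug/ml Hoechst fixed the cells and stained nuclei 5 days after treatment. Lung cancer cell lines in 1536-well plates had been treated by pin tool the day after seeding with one drug alone or a fixed anchor-drug dose plus five library-drug doses (not always all listed) in √10 steps, and nuclei were counted on 4× images. Relative viability is the ratio of nuclei in treated wells to nuclei in vehicle wells, taken as the median of duplicate plates.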

AGI-6780 + Bortezomib = compound: O=C(Nc1cccc(C(F)(F)F)c1)Nc1cc(S(=O)(=O)NC2CC2)ccc1-c1ccsc1 [AGI-6780] + CC(C)C[C@H](NC(=O)[C@H](Cc1ccccc1)NC(=O)c1cnccn1)B(O)O [Bortezomib] (partner 0.002 µM)
Procedure, shortened: as §1

AGI-6780 + Pictilisib = compound: O=C(Nc1cccc(C(F)(F)F)c1)Nc1cc(S(=O)(=O)NC2CC2)ccc1-c1ccsc1 [AGI-6780] + CS(=O)(=O)N1CCN(Cc2cc3nc(-c4cccc5[nH]ncc45)nc(N4CCOCC4)c3s2)CC1 [Pictilisib] (partner 1 µM)
Procedure, shortened: as §1

AGI-6780 + Olaparib = compound: O=C(Nc1cccc(C(F)(F)F)c1)Nc1cc(S(=O)(=O)NC2CC2)ccc1-c1ccsc1 [AGI-6780] + O=C(c1cc(Cc2n[nH]c(=O)c3ccccc23)ccc1F)N1CCN(C(=O)C2CC2)CC1 [Olaparib] (partner 8 µM)
Procedure, shortened: as §1

Cell Line | relative viability (AGI-6780 + Trametinib; first compound 0.08 µM) | relative viability (AGI-6780 + Trametinib; first compound 0.253 µM) | relative viability (AGI-6780 + Trametinib; first compound 0.8 µM) | relative viability (AGI-6780 + Trametinib; first compound 2.53 µM) | relative viability (AGI-6780 + Trametinib; first compound 8 µM) | relative viability (AGI-6780 + Bortezomib; first compound 0.253 µM) | relative viability (AGI-6780 + Bortezomib; first compound 0.8 µM) | relative viability (AGI-6780 + Bortezomib; first compound 2.53 µM) | relative viability (AGI-6780 + Bortezomib; first compound 8 µM) | relative viability (AGI-6780 + Pictilisib; first compound 0.08 µM) | relative viability (AGI-6780 + Pictilisib; first compound 0.253 µM) | relative viability (AGI-6780 + Pictilisib; first compound 0.8 µM) | relative viability (AGI-6780 + Pictilisib; first compound 2.53 µM) | relative viability (AGI-6780 + Pictilisib; first compound 8 µM) | relative viability (AGI-6780 + Olaparib; first compound 0.08 µM) | relative viability (AGI-6780 + Olaparib; first compound 0.253 µM) | relative viability (AGI-6780 + Olaparib; first compound 0.8 µM) | relative viability (AGI-6780 + Olaparib; first compound 2.53 µM) | relative viability (AGI-6780 + Olaparib; first compound 8 µM) | relative viability (AGI-6780 + Bortezomib; first compound 0.08 µM)
NCI-H596 | 0.841 | 0.712 | 0.655 | 0.652 | 0.777 | 1.04 | 0.761 | 0.918 | 1.13 | 0.419 | 0.399 | 0.376 | 0.382 | 0.476 | 0.749 | 0.765 | 0.704 | 0.625 | 0.791 | –
NCI-H647 | 0.499 | 0.505 | 0.476 | 0.45 | 0.474 | 1.01 | 0.735 | 1.05 | 1.41 | 0.428 | 0.452 | 0.421 | 0.347 | 0.342 | 0.622 | 0.579 | 0.705 | 0.479 | 0.488 | 1
NCI-H650 | 0.989 | 1.07 | 0.935 | 0.823 | 0.964 | 0.926 | 0.882 | 0.751 | 0.961 | 0.872 | 0.769 | 0.833 | 0.775 | 0.826 | 0.349 | 0.413 | 0.437 | 0.303 | 0.388 | 0.835
NCI-H661 | 0.671 | 0.61 | 0.558 | 0.542 | 0.62 | 0.933 | 0.758 | 0.694 | 0.771 | 0.378 | 0.482 | 0.45 | 0.317 | 0.381 | 0.782 | 0.754 | 0.768 | 0.719 | 0.726 | 0.78
NCI-H727 | 0.415 | 0.396 | 0.372 | 0.365 | 0.38 | 0.987 | 0.786 | 0.648 | 0.819 | 0.516 | 0.545 | 0.38 | 0.227 | 0.276 | 0.65 | 0.757 | 0.705 | 0.597 | 0.66 | 1.08
NCI-H838 | 0.505 | 0.517 | 0.481 | 0.474 | 0.531 | 0.692 | 0.952 | 1.05 | 1.18 | 0.473 | 0.479 | 0.469 | 0.447 | 0.48 | 0.844 | 0.771 | 0.836 | 0.712 | 0.735 | 0.965
NCI-H1355 | 0.426 | 0.496 | 0.465 | 0.354 | 0.404 | 1.28 | 1.21 | 1.02 | 1.24 | 0.492 | 0.503 | 0.5 | 0.326 | 0.437 | 0.838 | 0.791 | 0.773 | 0.65 | 0.71 | 1.23
NCI-H1437 | 0.537 | 0.548 | 0.512 | 0.406 | 0.522 | 0.569 | 0.703 | 0.563 | 0.747 | 0.438 | 0.545 | 0.432 | 0.283 | 0.43 | 0.677 | 0.638 | 0.639 | 0.63 | 0.572 | 0.562
